We go through three molecules from patent US9314020B2, “Microbicidal composition” (Dow Global Technologies LLC, priority 2012, dated 2016).

In experiment [1] the test system is Desulfovibrio longus ATCC 51456. The experiment can be described thus: Biocidal efficacy against anaerobic bacteria (2 h kill in deoxygenated salt solution). In kind it is cell-based. Here is the method:
(§1) The synergism of the biocides combination of the present invention was determined using the method described by Kull, F. C, et. al. in Applied Microbiology 9:538-541 (1961).
(§2) The formula to calculate the synergistic index (SI) is Qa/QA+Qb/QB=SI where
(§3) QA=concentration of compound A in ppm, acting alone produced an end point or if end point could not be established, the highest concentration tested will be used as the end point for the calculation and the SI will be recorded in “less than or <” values
(§4) Qa=concentration of compound A in ppm, in the mixture, which produced an end point
(§5) QB=concentration of compound B in ppm, acting alone produced an end point or if end point could not be established, the highest concentration tested will be used as the end point for the calculation and the SI will be recorded in “less than or <” values
Inside an anaerobic chamber (BACTRON anaerobic chamber), a deoxygenated sterile salt solution (3.1183 g of NaCl, 1.3082 mg of NaHCO3, 47.70 mg of KCl, 72.00 mg of CaCl2, 54.49 mg of MgSO4, 172.28 mg of Na2SO4, 43.92 mg of Na2CO3 in 1 L water) was inoculated with Desulfovibrio longus ATCC 51456, a sulfate-reducing bacterium, to a final bacterial concentration of 10^7 to 10^8 CFU/mL. Aliquots of this cell suspension were then treated with DBMAL, DTEA (in the hydrochloride form), and DBMAL/DTEA blends, at selected active concentrations. After the treated cell suspensions were incubated at 35° C. for 2 hours, the biocidal efficacy was determined by minimum tested biocide concentration for 99.999% bacteria kill in the aliquots. Table 1 summarizes the efficacy of each biocide and their blends, and the Synergy Index (SI) of each combination.
(§6) In order to differentiate DBMAL/DTEA combinations from DTEA/DBNPA combinations, DTEA/DBNPA combinations were also tested using the same test procedures and conditions described above.

The test system of experiment [2] is Pseudomonas aeruginosa ATCC 10145, Aeromonas hydrophila ATCC 7965, and Myroides odoratus (Flavobacterium odoratum) NCIMB 13294. The experiment can be described thus: Efficacy against aerobic bacteria in synthetic cooling water (4 h kill, TSB/Resazurin readout). Format: cell-based. The note with it: for Concentration (ppm a.i.) for complete bacterial kill in 4 hours: DBMAL: DBMAL alone or DBMAL part of DTEA/DBMAL blend; for Concentration (ppm a.i.) for complete bacterial kill in 4 hours: DBNPA: DBNPA alone or DBNPA part of DTEA/DBNPA blend. How it is done:
as §1, §2, §3, §4, §5
Synthetic cooling water was generated as disclosed in Appendix A and dispensed into three 96-well plates. A stock solution of DBMAL from 12% liquid active (or DBNPA from a solid formulation as appropriate) and a stock solution of DTEA (in the hydrochloride form) derived from a liquid stock stored under anaerobic conditions were generated in the synthetic cooling water. In one 96-well biocide block, the stock solution of DBMAL (or DBNPA as listed) was added to the first row of the master block and diluted 1:1 by row until the testing range has been prepared. In a second 96-well biocide block, the stock solution of DTEA was added to the first column of the master block and diluted 1:1 by column until the testing range has been prepared. Biocides from each DBMAL row in the DBMAL biocide master block were added to the matching experimental row in a 3rd 96 well plate filled with synthetic cooling water. This was repeated, adding biocides from each DTEA column from the DTEA biocide master block to the matching experimental column Working quickly, the following organisms were added from a cell-suspension with an OD600 of ˜0.4 (approximately 1×10^8 cfu/ml) to final concentration of 1×10^7 cfu/ml in the first of the 96 well plates: Pseudomonas aeruginosa ATCC 10145, Aeromonas hydrophila ATCC 7965, and Myroides odoratus (Flavobacterium odoratum) NCIMB 13294. The resulting bacterial final concentration was 3×10^7 cfu/ml in the experimental 96 well block.
The experimental block was placed at 35° C., with the time of exposure started once the last well had been inoculated. At 4 hours, the experimental block was removed from the incubator, and 20 μl of treated cells from each row of the experimental block and were added to the first row of a 96-well plate pre-filled with TSB/Resazurin dye. Each sample from the first row of the TSB/Resazurin dye plate was diluted 1:10 six times by serial dilution moving down the plate by row. The inoculated TSB/Resazurin dye 96-well plate was placed at 35° C. for 24 hours, following that time data interpretation occurred. Color change from purple to pink indicates microbial metabolic activity and designates lack of cell death. Those wells were counted as “growth”. Failure to have color change from purple to pink indicates a lack of microbial metabolic activity and designates cell death. These were counted as “no growth”. […] The efficacy and synergy index of each combo were also included.
as §6
A general note: Alamar Blue is a resazurin reagent that responds to reducing activity.

Consider `NC(=O)C(Br)(Br)C(N)=O` [DBMAL alone, 2,2-dibromomalonamide], for which, in experiment [1] (DBMAL alone or DBMAL part of DTEA/DBMAL blend, 35° C., 2 hours, Table 1), the “Concentration (ppm a.i.) for more than 99.999% bacterial kill in 2 hours: DBMAL” value was 100.00 ppm a.i. Moreover, the “Concentration (ppm a.i.) for complete bacterial kill in 4 hours: DBMAL” value turned out to be 25.00 ppm a.i in experiment [2] (experiment 1), 25.00 ppm a.i in experiment [2] (experiment 2), 25.00 ppm a.i in experiment [2] (experiment 3) and 50.00 ppm a.i in experiment [2] (experiment 4). In addition, the “Synergy Index” value in experiment [2] (DTEA/DBMAL blends, experiment 3) was 1.00.

As to `N#CC(Br)(Br)C(N)=O` [DBNPA alone], the “Concentration (ppm a.i.) for more than 99.999% bacterial kill in 2 hours: DBNPA” value in experiment [1] (DBNPA alone or DBNPA part of DTEA/DBNPA blend, Table 6) was 25.00 ppm a.i. The “Concentration (ppm a.i.) for complete bacterial kill in 4 hours: DBNPA” value in experiment [2] (experiment 5), in experiment [2] (experiment 6) and in experiment [2] (experiment 7) was 6.25 ppm a.i in each case.

Consider `CCCCCCCCCCSCCN.Cl` [DTEA alone, 2-(decylthio)ethanamine hydrochloride], for which the “Concentration (ppm a.i.) for more than 99.999% bacterial kill in 2 hours: DTEA” value in experiment [1] (DTEA alone or DTEA part of DTEA/DBMAL blend, 35° C., 2 hours, Table 1) is listed as 25.00 ppm a.i; in experiment [1] (DTEA alone or DTEA part of DTEA/DBNPA blend, Table 6) it was 25.00 ppm a.i. In addition, the “Concentration (ppm a.i.) for complete bacterial kill in 4 hours: DTEA” value is recorded as 12.50 ppm a.i in experiment [2] (DTEA alone or DTEA part of DTEA/DBMAL blend, experiment 1); 25.00 ppm a.i in experiment [2] (DTEA alone or DTEA part of DTEA/DBMAL blend, experiment 2); 25.00 ppm a.i in experiment [2] (DTEA alone or DTEA part of DTEA/DBMAL blend, experiment 3); 100.00 ppm a.i in experiment [2] (DTEA alone or DTEA part of DTEA/DBMAL blend, experiment 4); 50.00 ppm a.i in experiment [2] (DTEA alone or DTEA part of DTEA/DBNPA blend, experiment 5); 100.00 ppm a.i in experiment [2] (DTEA alone or DTEA part of DTEA/DBNPA blend, experiment 6). The “Concentration (ppm a.i.) for complete bacterial kill in 4 hours: DTEA” value in experiment [2] (DTEA alone or DTEA part of DTEA/DBNPA blend, experiment 7) came out at 50.00 ppm a.i.
